In patent US10076519B2 (CYTOKINETICS, INC., priority 2010, dated 2018):

Test system: rabbit skeletal myofibrils (fast skeletal myofibrils)
Assay: Activation of fast skeletal myofibrils (PUMA assay, PK/LDH-coupled ATPase at pCa25)
Format: biochemical
Conditions: AC1.4 determined according to the procedure of Example 39; reported as class symbols
How it was run: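 ATPase activity of Triton-washed rabbit skeletal myofibrils, roughly 90% fast fibres, tracked by NADH loss at 340 nm through a PK/LDH-coupled ADP-regenerating system. Calcium set to 25% of maximal activity (pCa25), in PIPES 12 mM pH 6.8 with 2 mM MgCl2 and 1 mM DTT; AC1.4 reported.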

Compound | Mean AC1.4
N#Cc1cncc(-c2ccc(NCC3(c4ccc(F)cc4)CC3)nn2)c1 [5-[6-({[(4-fluorophenyl)cyclopropyl]meth-yl}amino)pyridazin-3-yl]pyridine-3-carbonitrile] | B (B=1-10 uM)
NC(=O)c1cncc(-c2ccc(NCC3(c4ccc(F)cc4)CC3)nn2)c1 [5-[6-({[(4-fluorophenyl)cyclopropyl]meth-yl}amino)pyridazin-3-yl]pyridine-3-carboxamide] | B (B=1-10 uM)
CC(C)(CNc1nnc(-c2cccc(C(N)=O)c2)cc1C(N)=O)c1ccc(F)cc1 [6-(3-carbamoylphenyl)-3-{[2-(4-fluorophenyl)-2-methylpropyl]amino}pyridazine-4-carboxamide] | B (B=1-10 uM)
CC(C)(CNc1ccc(-c2ccc3c(c2)NC(=O)C3(C)C)nn1)c1ccc(F)cc1 [6-(6-{[2-(4-fluorophenyl)-2-methylpropyl]amino}pyridazin-3-yl)-3,3-dimethylindolin-2-one] | D (D=>20 uM)
CC(C)(CNc1ccc(-c2ccc(O)cn2)nn1)c1ccc(F)cc1 [6-(6-{[2-(4-fluorophenyl)-2-methylpropyl]amino}pyridazin-3-yl)pyridin-3-ol] | A (A=<1 uM)

Other lines, results leading:

Mean AC1.4 | Compound
B (B=1-10 uM) | CC(C)(CNc1ccc(-c2ccc3[nH]c(=O)[nH]c(=O)c3c2)nn1)c1ccc(F)cc1 [6-(6-{[2-(4-fluorophenyl)-2-methylpropyl]amino}pyridazin-3-yl)-1,3-dihydroquinazoline-2,4-dione]
A (A=<1 uM) | CC(C)(CNc1ccc(-c2ccc3[nH]c(=O)c(=O)[nH]c3c2)nn1)c1ccc(F)cc1 [6-(6-{[2-(4-fluorophenyl)-2-methylpropyl]amino}pyridazin-3-yl)-1,4-dihydroquinoxaline-2,3-dione]
B (B=1-10 uM) | CC(C)(CNc1ccc(-c2cccc(O)n2)nn1)c1ccc(F)cc1 [6-(6-{[2-(4-fluorophenyl)-2-methylpropyl]amino}pyridazin-3-yl)pyridin-2-ol]
B (B=1-10 uM) | CC(C)(CNc1ccc(-c2cccc(C(N)=O)n2)nn1)c1ccc(F)cc1 [6-(6-{[2-(4-fluorophenyl)-2-methylpropyl]amino}pyridazin-3-yl)pyridine-2-carboxamide]

Same assay, conditions: median AC1.4 class, procedure of Example 39

Compound | Mean AC1.4
NC(=O)c1nnc(-c2ccc(NCC3(c4ncccc4F)CCC3)nn2)o1 [5-[6-({[(3-fluoro-2-pyridyl)cyclobutyl]methyl}ami-no)pyridazin-3-yl]-1,3,4-oxadiazole-2-carboxamide] | C (C=10-20 uM)
O=c1[nH][nH]c2nc(-c3ccc(NCC4(c5ncccc5F)CCC4)nn3)sc12 [5-[6-({[(3-fluoro-2-pyridyl)cyclobutyl]methyl}ami-no)pyridazin-3-yl]-3-pyrazolino[3,4-d]1,3-thiazol-3-one] | D (D=>20 uM)
O=C(O)c1ccc(-c2ccc(NCC3(c4ncccc4F)CCC3)nn2)s1 [5-[6-({[(3-fluoro-2-pyridyl)cyclobutyl]methyl}ami-no)pyridazin-3-yl]thiophene-2-carboxylic acid] | B (B=1-10 uM)
O=c1[nH]nc(-c2cnc(-c3ccc(NCC4(c5ncccc5F)CCC4)nn3)s2)o1 [5-{2-[6-({[(3-fluoro-2-pyridyl)cyclobutyl]methyl}ami-no)pyridazin-3-yl]-1,3-thiazol-5-yl}-1,3,4-oxadiazolin-2-one] | B (B=1-10 uM)

More lines, now with the values ahead:

Mean AC1.4 | Compound
B (B=1-10 uM) | NC(=O)c1nnc(-c2ccc(NCC3(c4ncccc4F)CCC3)nn2)s1 [5-[6-({[(3-fluoro-2-pyridyl)cyclobutyl]methyl}ami-no)pyridazin-3-yl]-1,3,4-thiadiazole-2-carboxamide]
B (B=1-10 uM) | NC(=O)c1ncc(-c2ccc(NCC3(c4ncccc4F)CCC3)nn2)s1 [5-[6-({[(3-fluoro-2-pyridyl)cyclobutyl]methyl}ami-no)pyridazin-3-yl]-1,3-thiazole-2-carboxamide]
C (C=10-20 uM) | NC(=O)c1nnc(-c2ccc(NCC3(c4ncccc4F)CCC3)nn2)[nH]1 [5-[6-({[(3-fluoro-2-pyridyl)cyclobutyl]methyl}ami-no)pyridazin-3-yl]-4H-1,2,4-triazole-3-carboxamide]
B (B=1-10 uM) | N#Cc1ccc(-c2ccc(NCC3(c4ncccc4F)CCC3)nn2)s1 [5-[6-({[(3-fluoro-2-pyridyl)cyclobutyl]methyl}ami-no)pyridazin-3-yl]thiophene-2-carbonitrile]
A (A=<1 uM) | NC(=O)c1ccc(-c2ccc(NCC3(c4ncccc4F)CCC3)nn2)s1 [5-[6-({[(3-fluoro-2-pyridyl)cyclobutyl]methyl}ami-no)pyridazin-3-yl]thiophene-2-carboxamide]

Same assay, conditions: median AC1.4 reported as class; procedure of Example 39

Compound | Mean AC1.4
NC(=O)c1cc(-c2ccc(NCC3(c4ncccc4F)CCC3)nn2)c[nH]c1=O [5-[6-({[(3-fluoro(2-pyridyl))cyclobutyl]methyl}ami-no)pyridazin-3-yl]-2-oxohydropyridine-3-carboxamide] | C (C=10-20 uM)
O=c1cc(-c2ccc(NCC3(c4ncccc4F)CCC3)nn2)nc2cc[nH]n12 [5-[6-({[(3-fluoro-2-pyridyl)cyclobutyl]methyl}ami-no)pyridazin-3-yl]-8-hydro-3-pyrazolino[1,5-a]pyrimidin-7-one] | B (B=1-10 uM)
NC(=O)c1cc(N)cc(-c2ccc(NC[C@]3(c4ncccc4F)C[C@H](F)C3)nn2)c1 [5-amino-3-[6-({[3-fluoro-1-(3-fluoro(2-pyridyl))cyclobutyl]methyl}ami-no)pyridazin-3-yl]benzamide] | B (B=1-10 uM)
N#Cc1cc(N)cc(-c2ccc(NC[C@]3(c4ncccc4F)C[C@H](F)C3)nn2)c1 [5-amino-3-[6-({[3-fluoro-1-(3-fluoro(2-pyridyl))cyclobutyl]methyl}ami-no)pyridazin-3-yl]benzenecarbonitrile] | A (A=<1 uM)

Continued, values first:

Mean AC1.4 | Compound
D (D=>20 uM) | O=C(O)c1cc(-c2ccc(NCC3(c4ncccc4F)CCC3)nn2)c[nH]c1=O [5-[6-({[(3-fluoro(2-pyridyl))cyclobutyl]methyl}ami-no)pyridazin-3-yl]-2-oxohydropyridine-3-carboxylic acid]
D (D=>20 uM) | CC(=O)N1CCc2nc(-c3ccc(NCC4(c5ncccc5F)CCC4)nn3)sc2C1 [5-acetyl-2-[6-({[(3-fluoro(2-pyridyl))cyclobutyl]methyl}ami-no)pyridazin-3-yl]-4,5,6,7-tetrahydro-1,3-thiazolo[5,4-c]pyridine]
A (A=<1 uM) | N#Cc1cc(Br)cc(-c2ccc(NCC3(c4ncccc4F)CCC3)nn2)c1O [5-bromo-3-[6-({[(3-fluoro(2-pyridyl))cyclobutyl]methyl}ami-no)pyridazin-3-yl]-2-hydroxybenzenecarbonitrile]
B (B=1-10 uM) | NC(=O)c1cc(Cl)cc(-c2ccc(NC[C@]3(c4ncccc4F)C[C@H](F)C3)nn2)c1 [5-chloro-3-[6-({[3-fluoro-1-(3-fluoro(2-pyridyl))cyclobutyl]methyl}ami-no)pyridazin-3-yl]benzamide]
C (C=10-20 uM) | NC(=O)c1cn[nH]c1NC(=O)c1ccc(NCC2(c3ncccc3F)CCC2)nn1 [5-{[6-({[(3-fluoro-2-pyridyl)cyclobutyl]methyl}ami-no)pyridazin-3-yl]carbonylamino}pyrazole-4-carboxamide]
B (B=1-10 uM) | CC(C)(Nc1ccc(-c2cn3c(C(N)=O)csc3n2)nn1)c1ncccc1Cl [6-(6-{[1-(3-chloro(2-pyridyl))-isopropyl]amino}pyridazin-3-yl)imidazo[2,1-b]1,3-thiazoline-3-carboxamide]
